# Test results from paper PMC8198056 (Molecules, 2021).
# Numbered stars: 1 amine (or outer) side, 2 acyl side, 3 side chain; on linkers, the order of the positions; unused ones are H or OH. Square brackets hold non-standard residues; d marks the D form. Peptide text beside a SMILES is read from it. X1 = O=C1[C@@H](N[*:1])Cc2ccccc2CN1CCC(=O)[*:2]; Dmt = Cc1cc(O)cc(C)c1C[C@H](N)C(=O)O
# Assays:
# [1] = tested on: non-human primates; set-up: method as in PMID 30158150; details: cited from earlier work
# [2] = target: T1, human MOR (Homo sapiens, UniProt P35372); assay: Competitive radioligand binding assay ([3H]DAMGO), CHO-hMOR membranes; details: CHO-hOR membranes, mean ± SEM, read-out: Receptor Binding Ki
# T1 construct: expressed in transfected cells; host or cells: CHO (CHO-hMOR; gift of Lawrence Toll, SRI International)
# [3] = target: T2, human DOR (Homo sapiens, UniProt P41143); assay: Competitive radioligand binding assay ([3H]diprenorphine), CHO-hDOR membranes; details: CHO-hOR membranes, mean ± SEM, read-out: Receptor Binding Ki
# T2 construct: expressed in transfected cells; host or cells: CHO (CHO-hDOR; gift of Lawrence Toll, SRI International)
# [4] = target: T3, human KOR (Homo sapiens, UniProt P41145); assay: Competitive radioligand binding assay ([3H]U69,593), CHO-hKOR membranes; details: [3H]U69,593, CHO-hOR membranes, mean ± SEM, read-out: Receptor Binding Ki
# T3 construct: expressed in transfected cells; host or cells: CHO (CHO-hKOR; gift of Lawrence Toll, SRI International)
# [5] = target: T1, human MOR; assay: [35S]GTPγS binding assay, CHO-hMOR membranes; assay type: biochemical
# [6] = target: T2, human DOR; assay: [35S]GTPγS binding assay, CHO-hDOR membranes; assay type: biochemical
# [7] = target: T3, human KOR; assay: [35S]GTPγS binding assay, CHO-hKOR membranes; assay type: biochemical
# [8] = target: T4, human NOP receptor (Homo sapiens, UniProt P41146); assay: [35S]GTPγS binding assay, CHO-hNOP membranes; assay type: biochemical; details: relative to maximum effect of nociceptin (100%)
# T4 construct: expressed in transfected cells; host or cells: CHO (CHO-hNOP; gift of Lawrence Toll, SRI International)
# [9] = tested on: mice; assay: CFA-induced chronic inflammatory pain, thermal sensitivity (Hargreaves test); assay type: in vivo, mouse
# [10] = tested on: mice; assay: CFA-induced chronic inflammatory pain, mechanical sensitivity (von Frey test); assay type: in vivo, mouse
# [11] = set-up: method as in PMID 27035422; details: cited from earlier work
# [12] = tested on: rats; details: acute i.t. administration in rats; cited from earlier work
# [13] = tested on: rats; set-up: method as in PMID 27035422, PMID 28135212; details: i.v. at equianalgesic doses to rats; cited from earlier work
# [14] = tested on: mice; assay: Conditioned place preference (CPP); details: 4-day conditioning
# [15] = tested on: mice; assay: Open-field test (spontaneous locomotor activity)
# [16] = tested on: mice; assay: Formalin test (formalin-induced acute inflammatory pain); details: for %Antinociceptive effect Phase I: Phase I 0-5 min; for %Antinociceptive effect Phase II: Phase II 15-60 min
# [17] = tested on: mice; set-up: method as in PMID 17132815, PMID 23652222; details: cited from earlier work
# [18] = tested on: mice; assay: Naloxone-precipitated withdrawal syndrome; details: 15.5 µmol/kg s.c. daily 5 days; naloxone 1 mg/kg s.c.
smiles,measurement,setting,value
CC(C)C1CCC(N2CCC3(CC2)C(=O)N(CCNS(N)(=O)=O)Cc2ccccc23)CC1 (stereo not drawn) [AT-121],Antinociception and side effects,[1],produced antinociception with reduced respiratory depression and physical dependence
"CC[C@H](C)[C@H](NC(=O)[C@H](CCCNC(=N)N)NC(=O)[C@H](Cc1ccc(O)cc1)NC(=O)[C@H](Cc1ccc(O)cc1)NC(=O)[C@H](CCCNC(=N)N)NC(=O)CCN1Cc2ccccc2C[C@H](NC(=O)[C@@H](CCCNC(=N)N)NC(=O)[C@@H](N)Cc2c(C)cc(O)cc2C)C1=O)C(=O)N[C@@H](CCCCN)C(N)=O [KGNOP1, H-Dmt-D-Arg-Aba-β-Ala-Arg-Tyr-Tyr-Arg-Ile-Lys-NH2] (H-[Dmt][dR][X1]RYYRIK-NH2)",Ki,[2],0.42 ± 0.08 nM
same,Ki,[3],12.2 ± 3.5 nM
same,Ki,[4],13.4 ± 4.3 nM
same,EC50,[5],2.5 ± 0.81 nM
same,Emax,[5]; relative to maximum effect of DAMGO (100%),92 ± 4%
same,EC50,[6],51.6 ± 17.8 nM
same,Emax,[6]; relative to maximum effect of DPDPE (100%),106 ± 3%
same,EC50,[7],112 ± 32 nM
same,Emax,"[7]; relative to maximum effect of U69,593 (100%)",37 ± 3%
same,Emax,[8],99 ± 8%
same,Time span of significant inhibition of thermal hyperalgesia vs saline,[9]; 0.49 µmol/kg s.c.,30 to 240 min
same,% reversal of thermal sensitivity,"[9]; 0.49 µmol/kg s.c., 30 min",23.5%
same,% reversal of thermal sensitivity,"[9]; 0.49 µmol/kg s.c., 1 h",38.1%
same,% reversal of thermal sensitivity,"[9]; 0.49 µmol/kg s.c., 2 h",59.8%
same,% reversal of thermal sensitivity,"[9]; 0.49 µmol/kg s.c., 3 h",40.2%
same,% reversal of thermal sensitivity,"[9]; 0.49 µmol/kg s.c., 4 h",25.4%
same,% reversal of thermal sensitivity,"[9]; 0.49 µmol/kg s.c., 5 h",15.7%
same,% reversal of thermal sensitivity,"[9]; 0.49 µmol/kg s.c., 6 h",9.3%
same,% reversal of thermal sensitivity,"[9]; 0.49 µmol/kg s.c., 7 h",-1.46%
same,% reversal of thermal sensitivity,"[9]; 0.49 µmol/kg s.c., 8 h",6.12%
same,% reversal of thermal sensitivity,"[9]; 0.49 µmol/kg s.c., 24 h",-3.79%
same,"Time of maximum efficacy, Hargreaves test",[9]; 1.22 µmol/kg s.c.,two hours
same,Time span of significant inhibition of thermal hyperalgesia vs saline,[9]; 1.22 µmol/kg s.c.,30 to 360 min
same,% reversal of thermal sensitivity,"[9]; 1.22 µmol/kg s.c., 30 min",31.9%
same,% reversal of thermal sensitivity,"[9]; 1.22 µmol/kg s.c., 1 h",54.4%
same,% reversal of thermal sensitivity,"[9]; 1.22 µmol/kg s.c., 2 h",98.6%
same,% reversal of thermal sensitivity,"[9]; 1.22 µmol/kg s.c., 3 h",78.6%
same,% reversal of thermal sensitivity,"[9]; 1.22 µmol/kg s.c., 4 h",58.2%
same,% reversal of thermal sensitivity,"[9]; 1.22 µmol/kg s.c., 5 h",26.0%
same,% reversal of thermal sensitivity,"[9]; 1.22 µmol/kg s.c., 6 h",26.7%
same,% reversal of thermal sensitivity,"[9]; 1.22 µmol/kg s.c., 7 h",10.2%
same,% reversal of thermal sensitivity,"[9]; 1.22 µmol/kg s.c., 8 h",9.15%
same,% reversal of thermal sensitivity,"[9]; 1.22 µmol/kg s.c., 24 h",6.72%
same,Duration of reversal of CFA-induced thermal hyperalgesia,[9]; s.c.,up to 6 h
same,Time points of significant effect on mechanical stimulation vs saline,[10]; 1.22 µmol/kg s.c.,one hour
same,% reversal of mechanical sensitivity,"[10]; 1.22 µmol/kg s.c., 30 min",-6.71%
same,% reversal of mechanical sensitivity,"[10]; 1.22 µmol/kg s.c., 1 h",65.4%
same,% reversal of mechanical sensitivity,"[10]; 1.22 µmol/kg s.c., 2 h",19.1%
same,% reversal of mechanical sensitivity,"[10]; 1.22 µmol/kg s.c., 3 h",-8.73%
same,% reversal of mechanical sensitivity,"[10]; 1.22 µmol/kg s.c., 4 h",21.1%
same,% reversal of mechanical sensitivity,"[10]; 1.22 µmol/kg s.c., 5 h",-0.50%
same,% reversal of mechanical sensitivity,"[10]; 1.22 µmol/kg s.c., 6 h",-12.9%
same,% reversal of mechanical sensitivity,"[10]; 1.22 µmol/kg s.c., 7 h",-8.30%
same,% reversal of mechanical sensitivity,"[10]; 1.22 µmol/kg s.c., 8 h",-2.42%
same,% reversal of mechanical sensitivity,"[10]; 1.22 µmol/kg s.c., 24 h",-8.66%
same,Half-life time t1/2 in human plasma,[11],9.77 h
same,Effect on evoked locomotor activity in the rotarod test,[12],lack of KGNOP1′s effect on the evoked locomotor activity
same,Respiratory depression in contrast to morphine,[13],significantly less respiratory depression
same,CPP response vs saline,[14]; 1.22 and 2.44 µmol/kg s.c.,no significant preference at any tested dose
same,Spontaneous locomotor activity (distance traveled) vs saline,[15]; 1.22 µmol/kg s.c. daily for 4 days,no significant alteration in locomotion
same,Spontaneous locomotor activity (distance traveled) vs saline,"[15]; 2.44 µmol/kg s.c., only at day 1",significant decrease in locomotion
same,%Antinociceptive effect Phase I,[16]; 0.12 µmol/kg s.c.,33.9 ± 3.8%
same,%Antinociceptive effect Phase II,[16]; 0.12 µmol/kg s.c.,2.3 ± 11.1%
same,%Antinociceptive effect Phase I,[16]; 0.49 µmol/kg s.c.,33.7 ± 9.3%
same,%Antinociceptive effect Phase II,[16]; 0.49 µmol/kg s.c.,51.8 ± 9.7%
same,Pain response counted between 15 and 60 min,[16]; 1.22 µmol/kg s.c.,almost complete inhibition of the pain response
same,%Antinociceptive effect Phase I,[16]; 1.22 µmol/kg s.c.,55.6 ± 7.3%
same,%Antinociceptive effect Phase II,[16]; 1.22 µmol/kg s.c.,71.4 ± 6.8%
same,Antinociceptive effect after pre-treatment with SB-612111,"[16]; KGNOP1 1.22 µmol/kg s.c., SB-612111 6.6 µmol/kg s.c., -30 min, Phase I and II",significantly reversed the antinociceptive response
same,Antinociceptive effect after pre-treatment with naltrexone,"[16]; KGNOP1 1.22 µmol/kg s.c., naltrexone 2.6 µmol/kg s.c., -15 min, Phase I and II",significant antagonism of the antinociceptive effect
same,"Antinociceptive ED50 (95% CL), Phase I","[16]; s.c., acute nociceptive Phase I (0-5 min)",1.17 µmol/kg
same,"Antinociceptive ED50 (95% CL), Phase II","[16]; s.c., inflammatory Phase II (15-60 min)",0.55 µmol/kg
"O=C1Cc2ccccc2N1C1CCN(C2C3CCCC2CCC3)CC1 (stereo not drawn) [SR16435, 1-(1-(bicyclo [3.3. 1]nonan-9-yl)piperidin-4-yl) indolin-2-one]",CPP in mice,[17],induced CPP in mice to the same extent as morphine
"CN1CC[C@]23c4c5ccc(O)c4O[C@H]2[C@@H](O)C=C[C@H]3[C@H]1C5 [morphine, reference compound]",Time of peak antihyperalgesic effect,[9]; 15.5 µmol/kg s.c.,30 min
same,Time points of significant reduction in thermal hyperalgesia vs saline,[9]; 15.5 µmol/kg s.c.,30 min and one hour
same,% reversal of thermal sensitivity,"[9]; 15.5 µmol/kg s.c., 30 min",68.6%
same,% reversal of thermal sensitivity,"[9]; 15.5 µmol/kg s.c., 1 h",36.1%
same,% reversal of thermal sensitivity,"[9]; 15.5 µmol/kg s.c., 2 h",19.6%
same,% reversal of thermal sensitivity,"[9]; 15.5 µmol/kg s.c., 3 h",13.8%
same,% reversal of thermal sensitivity,"[9]; 15.5 µmol/kg s.c., 4 h",-1.96%
same,% reversal of thermal sensitivity,"[9]; 15.5 µmol/kg s.c., 5 h",0.43%
same,% reversal of thermal sensitivity,"[9]; 15.5 µmol/kg s.c., 6 h",-0.40%
same,% reversal of thermal sensitivity,"[9]; 15.5 µmol/kg s.c., 24 h",0.00%
same,Time points of significant effect on mechanical stimulation vs saline,[10]; 15.5 µmol/kg s.c.,30 min and one hour
same,% reversal of mechanical sensitivity,"[10]; 15.5 µmol/kg s.c., 30 min",63.4%
same,% reversal of mechanical sensitivity,"[10]; 15.5 µmol/kg s.c., 1 h",50.6%
same,% reversal of mechanical sensitivity,"[10]; 15.5 µmol/kg s.c., 2 h",18.9%
same,% reversal of mechanical sensitivity,"[10]; 15.5 µmol/kg s.c., 3 h",6.62%
same,% reversal of mechanical sensitivity,"[10]; 15.5 µmol/kg s.c., 4 h",1.57%
same,% reversal of mechanical sensitivity,"[10]; 15.5 µmol/kg s.c., 5 h",11.7%
same,% reversal of mechanical sensitivity,"[10]; 15.5 µmol/kg s.c., 6 h",-2.29%
same,% reversal of mechanical sensitivity,"[10]; 15.5 µmol/kg s.c., 24 h",1.68%
same,CPP response vs saline,[14]; 15.5 µmol/kg s.c.,significant CPP response
same,Global withdrawal score vs saline,[18],significantly increased withdrawal
same,Spontaneous locomotor activity (distance traveled) vs saline,"[15]; 15.5 µmol/kg s.c. daily, day 1 to day 4",significant increase in the distance traveled
same,%Antinociceptive effect Phase I,[16]; 3.11 µmol/kg s.c.,19.4 ± 6.7%
same,%Antinociceptive effect Phase II,[16]; 3.11 µmol/kg s.c.,24.8 ± 11.6%
same,%Antinociceptive effect Phase I,[16]; 7.77 µmol/kg s.c.,32.6 ± 5.7%
same,%Antinociceptive effect Phase II,[16]; 7.77 µmol/kg s.c.,57.5 ± 8.3%
same,Pain response counted between 15 and 60 min,[16]; 15.5 µmol/kg s.c.,almost complete inhibition of the pain response
same,%Antinociceptive effect Phase I,[16]; 15.5 µmol/kg s.c.,38.4 ± 10.9%
same,%Antinociceptive effect Phase II,[16]; 15.5 µmol/kg s.c.,79.1 ± 7.5%
